The results in this text go back to patent US20180371550A1, “LOSS OF TRANSCRIPTIONAL FIDELITY LEADS TO IMMUNOTHERAPY RESISTANCE IN CANCERS” (Children's Hospital Medical Center, priority 2015, published 2018).

The test system of assay [1] is B16/F10 mouse melanoma cells. The experiment in a line: Testing NK-mediated tumor cell killing in vivo (lung seeding of B16-OVA cells). Further details: species or system C57BL6 mice. The note with it: FIG. 15J. Here is the method: C57Bl/6 mice were injected with control or flavopiridol (100 μM) treated 2×10^5 B16-OVA cells into tail veins. One hour later, the lungs were harvested, digested in liberase and the frequency of tumor cells was assessed using quantitative PCR (Shehata et al., 2015). mRNA levels for OVA (B16-OVA) were assessed and normalized to GAPDH. […] Six mice for each group were used. The protocol and use of mice were performed with the approval of the Cincinnati Children's Institutional Animal Care and Use Committee.

Assay [2] has as its system Cal51 cells. The experiment in a line: STAT1 activation after IFN-α stimulation in flavopiridol-treated cells. Type of assay: cell-based. The note with it: flavopiridol for 48 hours, then IFN-α for 30 minutes, FIG. 15H. The procedure: Total proteins were extracted with RIPA buffer (Santa Cruz Biotechnology, sc-24948), and 15 μg protein from each sample was run in a 4-18% SDS polyacrylamide gel (Bio-Rad), and transferred onto polyvinylidene difluoride membranes. The membranes were blocked in 5% dry milk in tris-buffered saline—Tween 20 for 1 hour. Blocked membranes were incubated overnight with primary antibodies against pSer5-RNA polymerase II (1:1000, Active motif), pSer2-RNA polymerase II (1:1000, Active motif), RNA polymerase II (1:1000, Active motif), SETD2 (1:1000, abcam), CyclinT1 (1:1000, Santa Cruz), H3K36me3 (1:5000, abcam), H3K27me3 (1:5000, Active motif), Pan-acetyl-H3 (1:5000, Cell Signaling), Histone H3 (1:5000, Cell Signaling), pMAPK (1;1000, Cell Signaling), MAPK (1;1000, Cell Signaling), pAKT (1:1000, Cell Signaling), STAT1 (1:1000, Cell Signaling), pSTAT1 (1:1000, Cell Signaling), NF-κB (1:1000, Cell Signaling), pNF-κB (1:1000), Cleaved-PARP(1:1000, Cell Signaling), Caspase-3 (1;1000, Cell Signaling), β-Actin (1;1000, Cell Signaling), GAPDH (1:1000, Cell Signaling) in 5% bovine serum albumin. After washing and incubating with the appropriate secondary antibody (anti-rabbit IgG or anti-Rat IgG (1:5000, Cell signaling)), protein signals were detected with enhanced chemiluminescence (Millipore). […]

The test system of another assay is Cal51 and T47D cells. The experiment in a line: Immunoblot of RNAP II and histone marks in cells treated with flavopiridol. It is filed as cell-based. The note with it: increasing sublethal doses of flavopiridol for 48 hours, FIG. 15G. Here is the method: Total proteins were extracted with RIPA buffer (Santa Cruz Biotechnology, sc-24948), and 15 μg protein from each sample was run in a 4-18% SDS polyacrylamide gel (Bio-Rad), and transferred onto polyvinylidene difluoride membranes. The membranes were blocked in 5% dry milk in tris-buffered saline—Tween 20 for 1 hour. Blocked membranes were incubated overnight with primary antibodies against pSer5-RNA polymerase II (1:1000, Active motif), pSer2-RNA polymerase II (1:1000, Active motif), RNA polymerase II (1:1000, Active motif), SETD2 (1:1000, abcam), CyclinT1 (1:1000, Santa Cruz), H3K36me3 (1:5000, abcam), H3K27me3 (1:5000, Active motif), Pan-acetyl-H3 (1:5000, Cell Signaling), Histone H3 (1:5000, Cell Signaling), pMAPK (1;1000, Cell Signaling), MAPK (1;1000, Cell Signaling), pAKT (1:1000, Cell Signaling), STAT1 (1:1000, Cell Signaling), pSTAT1 (1:1000, Cell Signaling), NF-κB (1:1000, Cell Signaling), pNF-κB (1:1000), Cleaved-PARP(1:1000, Cell Signaling), Caspase-3 (1;1000, Cell Signaling), β-Actin (1;1000, Cell Signaling), GAPDH (1:1000, Cell Signaling) in 5% bovine serum albumin. After washing and incubating with the appropriate secondary antibody (anti-rabbit IgG or anti-Rat IgG (1:5000, Cell signaling)), protein signals were detected with enhanced chemiluminescence (Millipore).
(A western blot detects proteins with antibodies after separation by electrophoresis.)

Assay [3] deals with Cal51 cells. In words: Cytotoxicity assay: relative viability after FasL stimulation with flavopiridol pre-treatment. Type of assay: cell-based. To be noted: 24 hours FasL, 48 hour pre-treatment with 100 μM flavopiridol, FIG. 15I. The procedure:
Equal number of cells was seeded into the wells of 96-well culture plates in their corresponding medium and incubated overnight in a 5% CO2 humidified incubator. Cells were then treated with different concentrations of hhis6FasL (0.1 ng/ml-1000 ng/ml) in the presence of 10 μg/ml anti-His antibody (Cell Signaling) for 24 hours. Dead cells were removed by washing with PBS buffer and the attached cells were fixed and stained with crystal violet solution [20% methanol, 0.5% crystal violet (Sigma) in 1× phosphate-buffered saline (PBS)] for 30 min. Excess stain was removed by gently rinsing the plates in tap water, and the plates were dried at room temperature. Crystal violet crystals were redissolved in Triton (Amresco), and cell density was determined by measuring the absorbance at 570 nm in a microplate reader (Bio-Tek Instruments).

As for `CN1CC[C@H](c2c(O)cc(O)c3c(=O)cc(-c4ccccc4Cl)oc23)[C@H](O)C1` [flavopiridol], the “lung seeding of B16 cells (OVA mRNA normalized to GAPDH, qPCR)” value in assay [1] (B16-OVA cells treated with flavopiridol (100 μM), tail vein injection into C57Bl/6 mice, lungs after 1 hour, vs control cells) was “significantly increased the ability of B16 cells for lung seeding”. Further, the “lung seeding of B16 cells in NK-depleted mice” value in assay [1] (as E4, mice pre-injected with anti-asialo GM1 (NK depletion)) is given as “the effect was diminished”. Further, the “response to pro-inflammatory stimuli (STAT1 activation)” value with Cal51 cells [2] is “resistance to pro-inflammatory stimuli”. Further, in the assay on Cal51 and T47D cells, the “RNAP II and histone marks (epigenetic and transcriptional defects)” value was “widespread epigenetic and transcriptional defects”. Also, the “relative viability after FasL challenge” value with Cal51 cells [3] is “resistance to pro-inflammatory stimuli and FasL challenge”.
